From US10669290B2, “Beta-lactamase inhibitors” (priority 2012, dated 2020)

Assays:
Type in all cases: cell-based
K.P. A-1797 KPC-2 VIM-4 = test: Broth microdilution MIC, K. pneumoniae A-1797; conditions: Klebsiella pneumoniae; fixed meropenem 4 μg/mL, CAMHB, 16-20 hours 37° C.; read-out: MIC of exemplary compounds in presence of fixed β-lactams, Fixed Mero, K.P. A-1797 KPC-2 VIM-4
Excerpt: (§1) To determine the ability of test compounds to potentiate the inhibition of the growth of bacterial strains that produce beta-lactamase enzymes, classic cell based broth microdilution MIC assays were employed. Six bacteria strains producing beta-lactamase enzymes were used: E. coli expressing the Class A Extended Spectrum Beta-Lactamase (ESBL) CTX-M-15, E. cloacae expressing the Class C P99, K. pneumoniae expressing the Class A carbapenemase KPC-2, P. aeruginosa expressing the Class B carbapenemase VIM-2, K. pneumoniae expressing the class A carbapenemase KPC-2 and the class B carbapenemase VIM-4, and S. aureus producing the Class A penicillinase PC-1. The assay was conducted in Cation Adjusted Mueller Hinton Broth (CAMHB, BD #212322, BD Diagnostic Systems, Sparks, Md.). Bacteria strains were grown for 3-5 hours in CAMBH broth. Test compounds were added to a microtiter plate in 2-fold serial dilutions in CAMHB in a final concentration range of 32 μg/mL to 0.25 μg/ml. An overlay of CAMHB containing a Beta-lactam was added to the compounds at a final static concentration of 4 μg/ml. […] In addition to the titration of test compounds the MICs of a panel of control beta-lactams is also tested to ensure the strains are behaving consistently from test to test. Once the test compound and antibiotics are added the plates can be inoculated according to CLSI broth microdilution method. After inoculation the plates are incubated for 16-20 hours at 37° C. then the Minimal Inhibitory Concentration (MIC) of the test compound is determined visually.
(§2) Using the methodology described above in EXAMPLE III, exemplary compounds for Formula I or Formula Ia were evaluated for their ability to inhibit the growth of β-lactamase producing bacteria in the presence of a β-lactam antibiotic.

E. cl 144200 p99 AmpC = test: Broth microdilution MIC, E. cloacae 144200; conditions: Enterobacter cloacae; fixed ceftazidime 4 μg/mL, CAMHB, 16-20 hours 37° C.; read-out: MIC of exemplary compounds in presence of fixed β-lactams, Fixed CAZ, E. cl 144200 p99 AmpC
Excerpt: as §1, §2

P. aerug. Ps296 VIM-2 = test: Broth microdilution MIC, P. aeruginosa Ps296; conditions: Pseudomonas aeruginosa; fixed meropenem 4 μg/mL, CAMHB, 16-20 hours 37° C.; read-out: MIC of exemplary compounds in presence of fixed β-lactams, Fixed Mero, P. aerug. Ps296 VIM-2
Excerpt: as §1, §2

S. aureus MSSA-7 PC-1 = test: Broth microdilution MIC, S. aureus MSSA-7; conditions: Staphylococcus aureus, fixed piperacillin 4 μg/mL, CAMHB, 16-20 hours 37° C., read-out: MIC of exemplary compounds in presence of fixed β-lactams, Fixed Pip, S. aureus MSSA-7 PC-1
Excerpt: as §1, §2

K.P. 156319 KPC-3 = test: Broth microdilution MIC, K. pneumoniae 156319; conditions: Klebsiella pneumoniae; fixed meropenem 4 μg/mL, CAMHB, 16-20 hours 37° C.; read-out: MIC of exemplary compounds in presence of fixed β-lactams, Fixed Mero, K.P. 156319 KPC-3
E. coli ESBL4 CTX-M-15 = test: Broth microdilution MIC, E. coli ESBL4; conditions: Escherichia coli, ESBL4CTXM15; fixed ceftazidime 4 μg/mL, CAMHB, 16-20 hours 37° C.; read-out: MIC of exemplary compounds in presence of fixed β-lactams, Fixed CAZ, E. coli ESBL4 CTX-M-15
Excerpt: as §1, §2

| Compound | MIC (K.P. A-1797 KPC-2 VIM-4) [µg/mL] | MIC (E. cl 144200 p99 AmpC) [µg/mL] | MIC (P. aerug. Ps296 VIM-2) [µg/mL] | MIC (S. aureus MSSA-7 PC-1) [µg/mL] | MIC (K.P. 156319 KPC-3) [µg/mL] | MIC (E. coli ESBL4 CTX-M-15) [µg/mL] |
| --- | --- | --- | --- | --- | --- | --- |
| NCCNC1CCC(O)(CC(=O)N[C@H]2Cc3cccc(C(=O)O)c3OB2O)CC1 (stereo partly drawn) [Example 43, 3-{2-[4-(2-Amino-ethylamino)-1-hydroxy-cyclohexyl]-acetylamino}-2-hydroxy-3,4-dihydro-2H-benzo[e][1,2]oxaborinine-8-carboxylic acid] | > 32 | < 4 | < 4 | < 4 | < 4 | < 4 |
| N=C(N)N[C@H]1CC[C@H](CCC(=O)N[C@H]2Cc3cccc(C(=O)O)c3OB2O)CC1 [Example 22, (R)-3-(3-(trans-4-guanidinocyclohexyl)propanamido)-2-hydroxy-3,4-dihydro-2H-benzo[e][1,2]oxaborinine-8-carboxylic acid] | < 4 | < 4 | 8 to 32 | < 4 | < 4 | < 4 |
| N[C@H]1CC[C@H](NCC(=O)N[C@H]2Cc3cccc(C(=O)O)c3OB2O)CC1 [Example 45, 3-[2-(4-Amino-cyclohexylamino)-acetylamino]-2-hydroxy-3,4-dihydro-2H-benzo[e][1,2]oxaborinine-8-carboxylic acid] | 8 to 32 | < 4 | 8 to 32 | < 4 | < 4 | < 4 |
| O=C(C[C@H]1CC[C@@H](N2CCNCC2)CC1)N[C@H]1Cc2cccc(C(=O)O)c2OB1O [Example 17, (R)-2-hydroxy-3-(2-(cis-4-(piperazin-1-yl)cyclohexyl)acetamido)-3,4-dihydro-2H-benzo[e][1,2]oxaborinine-8-carboxylic acid] | > 32 | < 4 | > 32 | < 4 | < 4 | < 4 |
| CCNCCN[C@H]1CC[C@H](CC(=O)N[C@H]2Cc3cccc(C(=O)O)c3OB2O)CC1 [Example 78, (R)-3-(2-(trans-4-(2-(ethylamino)ethylamino)cyclohexyl)acetamido)-2-hydroxy-3,4-dihydro-2H-benzo[e][1,2]oxaborinine-8-carboxylic acid] | < 4 | < 4 | < 4 | < 4 | < 4 | < 4 |
| N[C@H]1CC[C@@H](CC(=O)N[C@H]2Cc3cccc(C(=O)O)c3OB2O)CC1 [Example 7, (R)-3-(2-(cis-4-aminocyclohexyl)acetamido)-2-hydroxy-3,4-dihydro-2H-benzo[e][1,2]oxaborinine-8-carboxylic acid] | > 32 | < 4 | > 32 | 8 to 32 | < 4 | < 4 |
| O=C(C[C@H]1CC[C@H](NCCN(CC2CC2)CC2CC2)CC1)N[C@H]1Cc2cccc(C(=O)O)c2OB1O [Example 75, (R)-3-(2-(trans-4-(2-(bis(cyclopropylmethyl)amino)ethylamino)cyclohexyl)acetamido)-2-hydroxy-3,4-dihydro-2H-benzo[e][1,2]oxaborinine-8-carboxylic acid] | < 4 | < 4 | < 4 | < 4 | < 4 | < 4 |
| CN(C)CC(=O)NC[C@H]1CC[C@H](CC(=O)N[C@H]2Cc3cccc(C(=O)O)c3OB2O)CC1 [Example 5, (R)-3-(2-(trans-4-((2-(dimethylamino)acetamido)methyl)cyclohexyl)acetamido)-2-hydroxy-3,4-dihydro-2H-benzo[e][1,2]oxaborinine-8-carboxylic acid] | > 32 | < 4 | < 4 | < 4 | 8 to 32 | < 4 |
| NCCN[C@H]1CC[C@@H](CC(=O)N[C@H]2Cc3cccc(C(=O)O)c3OB2O)CC1 [Example 46, (R)-3-(2-(cis-4-(2-aminoethylamino)cyclohexyl)acetamido)-2-hydroxy-3,4-dihydro-2H-benzo[e][1,2]oxaborinine-8-carboxylic acid] | < 4 | < 4 | < 4 | < 4 | < 4 | < 4 |
| NC1CCC(O)(CC(=O)N[C@H]2Cc3cccc(C(=O)O)c3OB2O)CC1 (stereo partly drawn) [Example 44, 3-[2-(4-Amino-1-hydroxy-cyclohexyl)-acetylamino]-2-hydroxy-3,4-dihydro-2H-benzo[e][1,2]oxaborinine-8-carboxylic acid] | < 4 | < 4 | 8 to 32 | 8 to 32 | < 4 | < 4 |
| O=C(C[C@H]1CC[C@H](NCc2ccccn2)CC1)N[C@H]1Cc2cccc(C(=O)O)c2OB1O [Example 32, (R)-2-hydroxy-3-(2-(trans-4-(pyridin-2-ylmethylamino)cyclohexyl)acetamido)-3,4-dihydro-2H-benzo[e][1,2]oxaborinine-8-carboxylic acid] | > 32 | < 4 | 8 to 32 | < 4 | < 4 | < 4 |
| NC[C@H]1CC[C@H](CC(=O)N[C@H]2Cc3cccc(C(=O)O)c3OB2O)CC1 [Example 3] | 8 to 32 | < 4 | < 4 | < 4 | < 4 | < 4 |
| NCCNC(=O)NCCN(C(=O)NCCN)C1CC(CC(=O)N[C@H]2Cc3cccc(C(=O)O)c3OB2O)C1 (stereo partly drawn) [Example 57, (R)-3-(2-(3-(3-(2-aminoethyl)-1-(2-(3-(2-aminoethyl)ureido)ethyl)ureido)cyclobutyl)acetamido)-2-hydroxy-3,4-dihydro-2H-benzo[e][1,2]oxaborinine-8-carboxylic acid] | 8 to 32 | < 4 | < 4 | < 4 | < 4 | < 4 |
| NCCN[C@H]1CC[C@H](CC(=O)N[C@H]2Cc3cccc(C(=O)O)c3OB2O)CC1 [Example 15, (R)-3-(2-(trans-4-(2-aminoethylamino)cyclohexyl)acetamido)-2-hydroxy-3,4-dihydro-2H-benzo[e][1,2]oxaborinine-8-carboxylic acid] | < 4 | < 4 | < 4 | < 4 | < 4 | < 4 |
| N=C(N)NCCN[C@H]1CC[C@H](CC(=O)N[C@H]2Cc3cccc(C(=O)O)c3OB2O)CC1 [Example 25, (R)-3-(2-(trans-4-(2-guanidinoethylamino)cyclohexyl)acetamido)-2-hydroxy-3,4-dihydro-2H-benzo[e][1,2]oxaborinine-8-carboxylic acid] | < 4 | < 4 | < 4 | < 4 | < 4 | < 4 |
| NCCNC1CC(CC(=O)N[C@H]2Cc3cccc(C(=O)O)c3OB2O)C1 (stereo partly drawn) [Example 55, (R)-3-(2-(3-(2-aminoethylamino)cyclobutyl)acetamido)-2-hydroxy-3,4-dihydro-2H-benzo[e][1,2]oxaborinine-8-carboxylic acid] | < 4 | < 4 | < 4 | < 4 | < 4 | < 4 |
| O=C(C[C@H]1CC[C@H](NCCNC2CCCC2)CC1)N[C@H]1Cc2cccc(C(=O)O)c2OB1O [Example 73, (R)-3-(2-(trans-4-(2-(cyclopentylamino)ethylamino)cyclohexyl)acetamido)-2-hydroxy-3,4-dihydro-2H-benzo[e][1,2]oxaborinine-8-carboxylic acid] | < 4 | < 4 | < 4 | < 4 | < 4 | < 4 |
